In the supplement of paper PMC10307832:

Key:
Experiment in all cases: relative viability (nuclei count vs DMSO), 5 days (fraction); higher = more cells survive
[1] = compound: CC(C)N(CCCNC(=O)Nc1ccc(C(C)(C)C)cc1)C[C@H]1O[C@@H](n2ccc3c(N)ncnc32)[C@H](O)[C@@H]1O + CS(=O)(=O)CCNCc1ccc(-c2ccc3ncnc(Nc4ccc(OCc5cccc(F)c5)c(Cl)c4)c3c2)o1 [Lapatinib] (partner 2 µM)
Summary of the method: (§1)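 Relative viability was taken as the ratio of nuclei in treated wells to nuclei in vehicle wells. Lung cancer cell lines in 1536-well plates received compounds by pin tool one day after seeding, either one drug alone or a fixed anchor-drug dose plus five library-drug doses (not always all listed) in √10 steps. Nuclei were counted on 4× images after 5 days of treatment, and values are medians of duplicate plates.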

[2] = compound: CC(C)=CC[C@@H](O)C1=CC(=O)c2c(O)ccc(O)c2C1=O [Shikonin] + N=C(N)NC(=N)NCCc1ccccc1 [Phenformin] (partner 250 µM)
Summary of the method: as §1

[3] = compound: CC(C)N(CCCNC(=O)Nc1ccc(C(C)(C)C)cc1)C[C@H]1O[C@@H](n2ccc3c(N)ncnc32)[C@H](O)[C@@H]1O + O=C(CCCCCCC(=O)Nc1ccccc1)NO [Vorinostat] (partner 1 µM)
Summary of the method: as §1

[4] = compound: CC(C)=CC[C@@H](O)C1=CC(=O)c2c(O)ccc(O)c2C1=O [Shikonin] + O=C(CCCCCCC(=O)Nc1ccccc1)NO [Vorinostat] (partner 1 µM)
Summary of the method: as §1

| Cell Line | relative viability ([1]; first compound 0.08 µM) | relative viability ([1]; first compound 0.253 µM) | relative viability ([1]; first compound 0.8 µM) | relative viability ([1]; first compound 2.53 µM) | relative viability ([1]; first compound 8 µM) | relative viability ([2]; first compound 0.01 µM) | relative viability ([2]; first compound 0.1 µM) | relative viability ([2]; first compound 0.3162 µM) | relative viability ([2]; first compound 1 µM) | relative viability ([3]; first compound 0.08 µM) | relative viability ([3]; first compound 0.253 µM) | relative viability ([3]; first compound 0.8 µM) | relative viability ([3]; first compound 2.53 µM) | relative viability ([3]; first compound 8 µM) | relative viability ([4]; first compound 0.01 µM) | relative viability ([4]; first compound 0.1 µM) | relative viability ([4]; first compound 0.3162 µM) | relative viability ([4]; first compound 1 µM) |
| --- | --- | --- | --- | --- | --- | --- | --- | --- | --- | --- | --- | --- | --- | --- | --- | --- | --- | --- |
| PC-14 | 0.287 | 0.284 | 0.355 | 0.332 | 0.316 | 0.587 | 0.619 | 0.597 | 0.637 | 0.71 | 0.722 | 0.624 | 0.702 | 0.561 | 0.807 | 0.833 | 0.77 | 0.484 |
| H3255 | 0.242 | 0.255 | 0.231 | 0.253 | 0.216 | 0.398 | 0.384 | 0.353 | 0.35 | 0.743 | 0.807 | 0.717 | 0.788 | 0.477 | 0.703 | 0.959 | 0.916 | 0.855 |
| SK-MES-1 | 0.501 | 0.461 | 0.455 | 0.491 | 0.414 | 0.747 | 0.677 | 0.72 | 0.638 | 1.04 | 1.13 | 0.867 | 1.1 | 1.06 | 1.13 | 1.33 | 1.12 | 1.26 |
| NCI-H1437 | 0.703 | 0.77 | 0.773 | 0.722 | 0.715 | 0.299 | 0.338 | 0.337 | 0.321 | 0.8 | 0.799 | 0.759 | 0.791 | 0.759 | 0.886 | 0.841 | 0.856 | 0.736 |
| LU99A | 0.923 | 0.679 | 1.16 | 1.16 | 1.04 | 0.859 | 1.15 | 0.758 | 0.791 | 0.454 | 0.342 | 0.483 | 0.539 | 0.409 | 0.459 | 0.617 | 0.485 | 0.494 |
| HCC-827 | 0.207 | 0.217 | – | 0.174 | 0.158 | 0.438 | 0.404 | 0.42 | 0.373 | 0.862 | 0.903 | 0.579 | 0.902 | 0.875 | 0.831 | 0.908 | 1.06 | 0.855 |
| LK-2 | 0.842 | 0.792 | 0.985 | 0.867 | 0.82 | 0.434 | 0.496 | 0.442 | 0.466 | 0.325 | 0.282 | 0.391 | 0.315 | 0.213 | 0.279 | 0.309 | 0.214 | 0.316 |
| HCC-366 | 0.987 | 1.07 | 1.02 | 0.981 | 0.976 | 0.62 | 0.644 | 0.663 | 0.597 | 0.439 | 0.303 | 0.182 | 0.357 | 0.291 | 0.367 | 0.425 | 0.323 | 0.484 |
| BEN | 0.71 | 0.67 | 0.71 | 0.628 | 0.625 | 0.298 | 0.286 | 0.279 | 0.232 | 0.597 | 0.539 | 0.576 | 0.606 | 0.572 | 0.567 | 0.619 | 0.606 | 0.617 |
| NCI-H2347 | 0.965 | 0.999 | 0.654 | 0.968 | 0.934 | 0.488 | 0.384 | 0.31 | 0.313 | 0.54 | 0.537 | 0.458 | 0.608 | 0.546 | 0.567 | 0.529 | 0.6 | 0.577 |
| NCI-H1395 | 1.15 | 1.02 | – | 0.94 | 0.904 | 0.42 | 0.484 | 0.419 | 0.459 | 0.727 | 0.58 | 0.427 | 0.638 | 0.786 | 0.675 | 0.705 | 0.695 | 0.938 |
| 201T | 0.99 | 1.07 | 0.863 | 1.02 | 1.01 | 0.464 | 0.492 | 0.428 | 0.498 | 0.984 | 0.975 | – | 0.911 | 0.931 | 1.02 | 1.03 | 1.02 | 1 |
| NCI-H2170 | 0.248 | 0.26 | 0.256 | 0.262 | 0.266 | 0.399 | 0.445 | 0.449 | 0.431 | 0.811 | 0.681 | 0.807 | 0.83 | 0.688 | 0.856 | 0.89 | 0.999 | 0.816 |
| NCI-H596 | 1.17 | 0.946 | 0.971 | 1.08 | 1.06 | 0.798 | 0.858 | 0.893 | 0.897 | 0.601 | 0.427 | 0.39 | 0.674 | 0.714 | 0.45 | 0.616 | 0.612 | 0.774 |
| NCI-H838 | 0.869 | 0.521 | 0.953 | 0.938 | 0.916 | 0.547 | 0.722 | 0.608 | 0.578 | 0.683 | 0.744 | 0.784 | 0.755 | 0.672 | 0.704 | 0.753 | 0.775 | 0.582 |
| HCC-15 | 0.864 | 0.876 | 0.68 | 0.818 | 0.804 | 0.511 | 0.545 | 0.49 | 0.456 | 0.92 | 0.806 | 0.888 | 0.818 | 0.793 | 0.986 | 0.841 | 1.01 | 0.955 |
| ABC-1 | 1.31 | 0.936 | 0.847 | 1.13 | 1.12 | 0.247 | 0.23 | 0.206 | 0.188 | 1.19 | 1.29 | – | 1.07 | 0.919 | 1.2 | 1.15 | 1.08 | 0.837 |
| NCI-H460 | 0.835 | 0.983 | 0.829 | 0.971 | 0.855 | 0.515 | 0.64 | 0.51 | 0.474 | 0.719 | 0.727 | 0.746 | 0.701 | 0.734 | 0.919 | 0.946 | 0.959 | 0.828 |
